# In the NIST ThermoML archive (doi:10.1016/j.jct.2010.02.014):
# Experiment: cn = amount concentration of the nth substance listed, in mol/dm3
# Details: 298.15 K, 101.3 kPa, Liquid, Taylor dispersion method
structure (smiles),measurement,setting,value
NNC(=O)c1ccncc1 [isonicotinic acid hydrazide] + O,binary diffusion coefficient,c1 = 0,8.26e-10 m2/s
same,binary diffusion coefficient,c1 = 0.005,8.25e-10 m2/s
same,binary diffusion coefficient,c1 = 0.01,8.23e-10 m2/s
same,binary diffusion coefficient,c1 = 0.02,8.21e-10 m2/s
